A word on the IC50: it is the point on the concentration scale where inhibition reaches its midpoint.

The results in this text go back to ChEMBL document CHEMBL1128189, “alpha-Hydroxy phosphinyl-based inhibitors of human renin” (J Med Chem, 1995).

The target of experiment [1] is T1, Renin (Homo sapiens, UniProt P00797).
T1 sequence (P00797 whole entry): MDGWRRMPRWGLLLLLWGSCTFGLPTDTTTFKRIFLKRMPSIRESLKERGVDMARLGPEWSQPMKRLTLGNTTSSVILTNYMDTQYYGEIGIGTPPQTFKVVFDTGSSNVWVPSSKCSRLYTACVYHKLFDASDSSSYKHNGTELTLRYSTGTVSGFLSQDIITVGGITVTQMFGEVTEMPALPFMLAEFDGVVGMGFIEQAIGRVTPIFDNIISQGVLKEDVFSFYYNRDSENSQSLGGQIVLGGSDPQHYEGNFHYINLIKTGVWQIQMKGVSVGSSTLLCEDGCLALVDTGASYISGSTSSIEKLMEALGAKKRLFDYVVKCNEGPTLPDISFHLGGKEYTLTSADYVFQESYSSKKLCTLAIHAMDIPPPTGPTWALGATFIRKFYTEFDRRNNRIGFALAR
The experiment can be described thus: Evaluation of inhibitory activity against human renin.

The target in experiment [2] is T1, Renin. The experiment can be described thus: Evaluation of inhibitory activity against human renin. value in parentheses indicate no. of determinations.
Experiment [3] has as its target T1, Renin. The experiment is described as follows: Evaluation of inhibitory activity against human renin.

Take `CCOP(=O)(OCC)[C@@H](O)[C@H](CC1CCCCC1)NC(=O)[C@H](CC(C)C)NC(=O)[C@H](Cc1ccccc1)NC(=O)OC(C)(C)C`: half-maximal inhibition at Renin [1] (IC50) was put at 41000 nM.

Consider `CCP(=O)(CC)[C@H](O)[C@H](CC1CCCCC1)NC(=O)[C@H](CC(C)C)NC(=O)[C@H](Cc1ccccc1)NC(=O)C1CCCC1`, for which the IC50 on Renin [2] is 400 nM.

`COP(=O)(OC)[C@H](O)[C@H](CC1CCCCC1)NC(=O)[C@H](CC(C)C)NC(=O)[C@H](Cc1ccccc1)NC(=O)CCCCCN` gave an IC50 on Renin [3] of 31 nM.

`CCOC(=O)[C@H](O)[C@H](CC1CCCCC1)NC(=O)[C@H](CC(C)C)NC(=O)[C@H](Cc1ccccc1)NC(=O)OC(C)(C)C` returned an IC50 on Renin [3] of 5 nM.

`COP(=O)(OC)[C@H](O)[C@H](CC1CCCCC1)NC(=O)[C@H](CC(C)C)NC(=O)[C@H](Cc1ccccc1)NC(=O)N1CCOCC1`: the IC50 on Renin [3] amounted to 8.5 nM.

Consider `COP(=O)(OC)[C@H](O)[C@H](CC1CCCCC1)NC(=O)[C@H](Cc1cnc[nH]1)NC(=O)[C@H](Cc1ccccc1)NC(=O)N1CCOCC1`, for which the IC50 at Renin [3] turned out to be 41 nM.

The compound `COP(=O)(O)[C@H](O)[C@H](CC1CCCCC1)NC(=O)[C@H](CC(C)C)NC(=O)[C@H](Cc1ccccc1)NC(=O)C1CCCC1` yielded an IC50 against Renin [3] of 27000 nM.

Turning to `CCP(=O)(CC)[C@@H](O)[C@H](CC1CCCCC1)NC(=O)[C@H](CC(C)C)NC(=O)[C@H](Cc1ccccc1)NC(=O)C1CCCC1`, the IC50 at Renin [2] was 5200 nM.

`COP(=O)(OC)[C@H](O)[C@H](CC1CCCCC1)NC(=O)[C@H](CC(C)C)NC(=O)[C@H](Cc1ccccc1)NC(=O)C1CCCC1` came in with an IC50 against Renin [3] of 16 nM.

In turn, `COP(=O)(OC)[C@H](O)[C@H](CC1CCCCC1)NC(=O)[C@H](CC(C)C)NC(=O)[C@H](Cc1ccccc1)NC(=O)OC(C)(C)C` registered an IC50 on Renin [1] of 10 nM.

`CCOP(=O)(OCC)[C@H](O)[C@H](CC1CCCCC1)NC(=O)[C@H](CC(C)C)NC(=O)[C@H](Cc1ccccc1)NC(=O)C1CCCC1`: on Renin [1], half-maximal inhibition (IC50) required 38 nM.

Consider `CCOP(=O)(OCC)[C@H](O)[C@H](CC1CCCCC1)NC(=O)[C@H](CC(C)C)NC(=O)[C@H](Cc1ccccc1)NC(=O)OC(C)(C)C`, for which the IC50 against Renin [1] came out at 29 nM.

The compound `COP(=O)(OC)[C@H](O)[C@H](CC1CCCCC1)NC(=O)[C@H](Cc1cnc[nH]1)NC(=O)[C@H](Cc1ccccc1)NC(=O)C1CCCC1` came in with an IC50 against Renin [3] of 220 nM.

Turning to `CCP(=O)(OC)C(O)[C@H](CC1CCCCC1)NC(=O)[C@H](CC(C)C)NC(=O)[C@H](Cc1ccccc1)NC(=O)C1CCCC1` (stereo in doubt; 28), the IC50 on Renin [2] is 210 nM.

`CCP(=O)(OC)C(O)[C@H](CC1CCCCC1)NC(=O)[C@H](CC(C)C)NC(=O)[C@H](Cc1ccccc1)NC(=O)C1CCCC1` (stereo in doubt; 29): the half-inhibitory concentration (IC50) at Renin [2] was 44 nM.

In the case of `CCP(=O)(OC)C(O)[C@H](CC1CCCCC1)NC(=O)[C@H](CC(C)C)NC(=O)[C@H](Cc1ccccc1)NC(=O)C1CCCC1` (stereo in doubt; 30), on Renin [2], the IC50 turned out to be 2400 nM.
